# How the values were obtained:
# [1] = In vivo oral bioavailability assay (mouse PK); details: Balb/c mice female, IV bolus 1 mg/kg
# Protocol: In Vivo Oral Bioavailability Assay (Mouse PK):
# Single dose following IV bolus (1 mg/kg, 0.2 mg/mL in 1% DMSO, 99% SBE-β-CD (10% w/v) in water) and oral gavage (10 mg/kg~60 mg/kg) administration of test compound in Balb/c Mice female. The blood samples were collected at 2 min, 5 min, 10 min, 30 min, 1 hr, 2 hr, 4 hr, 8 hr and 24 hr (additional 32 hr and 48 hr for MRTX1133) after IV bolus, at 15 min, 30 min, 1 hr, 1.5 hr, 2 hr, 3 hr, 4 hr, 8 hr and 24 hr (additional 32 hr and 48 hr for MRTX1133) after PO administration. The plasma concentrations of compounds were determined with UPLC-MS/MS.
# PANC-1 pERK = test: Phospho-ERK 1/2 assay; format: cell-based; details: PANC-1 cells, compound incubation 3 hours, pERK normalised with GAPDH antibody staining
# Protocol: Allow PNAC-1 cell growth in a T75 flask in DMEM and 10% 1 fetal calf serum (FCS; Gibco®), using standard tissue culture procedures until ~80% confluency is achieved. Day 1, seed 6000 cells/well in 384 well plate and incubate at 37° C., 5% CO2. Add diluted compound by Echo 550, final DMSO is 0.5%, incubate cells at 37° C., 5% CO2 for 3 hours. Then, remove medium and fix cells with 3.7% formaldehyde in PBS (PFA) by Apricot. Wash with PBS once. Permeabilize cells with cold 100% methanol and repeat wash once with PBS once. Add Li-Cor blocking buffer to each well and incubate 1.5 hours at RT. Remove blocking buffer and add primary antibody mixture (rabbit anti pERK, mouse anti GAPDH). Incubate at 4° C. overnight. Day 2, wash with PBST (Tween-20 in PBS) with total 3 times and then add secondary antibody mixture (goat anti rabbit 800CW (1:800 dilution in the combined solution) and goat anti mouse 680RD (1:800 dilution in the combined solution)), incubate for 60 minutes at RT away from light. Repeat washing with PBST 3 times. After final wash, centrifuge plate up-side-down at 1000 rpm to remove wash solution completely from wells. Before plate scanning, clean the bottom plate surface and the Odyssey© Imager scanning bed (if applicable) with moist, lint-free tissue to avoid any obstructions during scanning. Scan plate with detection in both 700 and 800 nm channels.
# [2] = molecular target: T1, P-glycoprotein (Pgp, MDR1) (Homo sapiens, UniProt P08183); test: MDCK-MDR1 Pgp assessment; format: in vitro ADME; details: dog, MDCK-MDR1 cells, read-out: Pgp Efflux Ratio (Pexact)
# T1 construct: expressed in transfected cells; host or cells: MDCK-MDR1 cells
# Protocol: Efflux transport mediated by P-glycoprotein (Pgp) was assessed by MDCK-MDR1 cells. The final concentrations of test compounds and control compound were at 1 μM. The multi-well insert plate was incubated at 37 ^9C for 2 hours. In order to reliably measure passive permeability coefficients, Pexact was reported, which automatically corrects for loss of compound.
# T1 sequence (P08183 whole entry): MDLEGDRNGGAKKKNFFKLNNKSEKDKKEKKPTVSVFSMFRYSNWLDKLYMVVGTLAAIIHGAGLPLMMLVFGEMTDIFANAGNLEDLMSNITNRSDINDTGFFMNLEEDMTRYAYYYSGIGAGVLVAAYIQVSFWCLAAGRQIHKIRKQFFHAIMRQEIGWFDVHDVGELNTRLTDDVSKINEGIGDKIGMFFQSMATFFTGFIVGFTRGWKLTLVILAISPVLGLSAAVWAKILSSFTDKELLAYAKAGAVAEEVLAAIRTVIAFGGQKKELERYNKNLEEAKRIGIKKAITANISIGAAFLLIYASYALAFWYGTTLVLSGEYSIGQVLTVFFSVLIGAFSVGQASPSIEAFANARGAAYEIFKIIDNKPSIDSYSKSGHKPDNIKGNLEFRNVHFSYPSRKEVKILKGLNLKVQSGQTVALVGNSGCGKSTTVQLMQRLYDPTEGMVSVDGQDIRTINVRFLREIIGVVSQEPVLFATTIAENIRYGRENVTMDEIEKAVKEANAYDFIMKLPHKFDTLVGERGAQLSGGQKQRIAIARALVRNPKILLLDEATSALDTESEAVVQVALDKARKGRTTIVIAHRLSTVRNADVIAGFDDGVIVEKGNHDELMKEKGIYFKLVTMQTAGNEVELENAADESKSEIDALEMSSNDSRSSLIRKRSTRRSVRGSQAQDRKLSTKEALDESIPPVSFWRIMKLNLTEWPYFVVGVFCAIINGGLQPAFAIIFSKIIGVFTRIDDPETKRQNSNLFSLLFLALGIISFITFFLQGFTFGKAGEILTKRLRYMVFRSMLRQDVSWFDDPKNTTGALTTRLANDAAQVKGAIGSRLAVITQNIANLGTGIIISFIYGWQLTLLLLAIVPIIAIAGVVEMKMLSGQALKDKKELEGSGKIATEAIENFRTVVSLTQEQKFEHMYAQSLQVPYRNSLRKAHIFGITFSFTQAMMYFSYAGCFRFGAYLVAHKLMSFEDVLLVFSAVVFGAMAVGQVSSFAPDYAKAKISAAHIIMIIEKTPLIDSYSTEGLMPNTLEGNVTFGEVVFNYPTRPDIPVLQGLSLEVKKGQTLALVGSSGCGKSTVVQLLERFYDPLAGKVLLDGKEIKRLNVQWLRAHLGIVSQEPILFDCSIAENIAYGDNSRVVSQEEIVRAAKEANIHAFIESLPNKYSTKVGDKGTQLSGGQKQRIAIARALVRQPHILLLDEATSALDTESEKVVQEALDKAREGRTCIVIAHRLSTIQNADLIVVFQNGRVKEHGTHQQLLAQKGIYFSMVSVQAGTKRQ
SMILES,"IC50 (PANC-1 pERK; Homo sapiens, PANC-1, 3 h) [µM]",also measured
"C#Cc1c(F)ccc2cccc(-c3nc4c5c(nc(=O)n(C[C@@]67CCCN6CC(=C)C7)c5c3F)N3C[C@H]5CC[C@H](N5)[C@H]3[C@H](C)O4)c12 (single isomer, unassigned) [Example 200a]",0.012,"Fa*Fg (%) ([1]; oral dose 10 mpk): 24%; bioavailability ([1]; mouse, plasma, oral dose 10 mpk): 15.8%"
"C#Cc1c(F)ccc2cccc(-c3nc4c5c(nc(=O)n(CC(C)(CO)N(C)C)c5c3F)N3C[C@H]5CC[C@H](N5)[C@H]3[C@H](C)O4)c12 (single isomer, unassigned) [Example 365a]",–,"IC50 (PANC-1 pERK): 0.006 µM; efflux ratio at 2 h, 1 μM [2]: 8.4"
"CCc1c(F)ccc2cc(O)cc(-c3nc4c5c(nc(=O)n(CC(C)(CO)N(C)C)c5c3F)N3C[C@H]5CC[C@H](N5)[C@H]3[C@H](C)O4)c12 (single isomer, unassigned) [Example 373a]",–,"IC50 (PANC-1 pERK): 0.0064 µM; efflux ratio at 2 h, 1 μM [2]: 12.5"
"CCc1c(F)ccc2cc(O)cc(-c3nc4c5c(nc(=O)n(C[C@@]67CCCN6C[C@H](F)C7)c5c3F)N3C[C@@]5(C)CC[C@H](N5)[C@H]3[C@H](C)O4)c12 [Example 361, (5S,5aS,6S,9R)-2-(8-ethyl-7-fluoro-3-hydroxynaphthalen-1-yl)-1-fluoro-13-(((2R,7aS)-2-fluorotetrahydro-1H-pyrrolizin-7a(5H)-yl)methyl)-5,9-dimethyl-5a,6,7,8,9,10-hexahydro-5H-4-oxa-3,10a,11,13,14-pentaaza-6,9-methanonaphtho[1,8-ab]heptalen-12(13H)-one]",0.043,–
"C=C1CN2CCC[C@@]2(Cn2c(=O)nc3c4c(nc(-c5cc(O)cc6ccc(F)c(CC)c56)c(F)c42)O[C@@H](C)[C@@H]2[C@@H]4CC[C@](C)(CN32)N4)C1 [Example 362, (5S,5aS,6S,9R)-2-(8-ethyl-7-fluoro-3-hydroxynaphthalen-1-yl)-1-fluoro-5,9-dimethyl-13-(((S)-2-methylenetetrahydro-1H-pyrrolizin-7a(5H)-yl)methyl)-5a,6,7,8,9,10-hexahydro-5H-4-oxa-3,10a,11,13,14-pentaaza-6,9-methanonaphtho[1,8-ab]heptalen-12(13H)-one]",0.221,–
"C=C1CN2CCC[C@@]2(Cn2c(=O)nc3c4c(nc(-c5cc(O)cc6ccc(F)c(Cl)c56)c(F)c42)O[C@@H](C)[C@@H]2[C@@H]4CC[C@H](CN32)N4)C1 [Example 363, (5S,5aS,6S,9R)-2-(8-chloro-7-fluoro-3-hydroxynaphthalen-1-yl)-1-fluoro-5-methyl-13-(((S)-2-methylenetetrahydro-1H-pyrrolizin-7a(5H)-yl)methyl)-5a,6,7,8,9,10-hexahydro-5H-4-oxa-3,10a,11,13,14-pentaaza-6,9-methanonaphtho[1,8-ab]heptalen-12(13H)-one]",0.088,–
"C#Cc1c(F)ccc2cccc(-c3nc4c5c(nc(=O)n(C[C@H]6CCN6C)c5c3F)N3C[C@H]5CC[C@H](N5)[C@H]3[C@H](C)O4)c12 [Example 366, (8S,8aS,9S,12R)-5-(8-ethynyl-7-fluoronaphthalen-1-yl)-4-fluoro-8-methyl-3-(((R)-1-methylazetidin-2-yl)methyl)-8a,9,10,11,12,13-hexahydro-8H-7-oxa-1,3,6,13a,14-pentaaza-9,12-methanonaphtho[1,8-ab]heptalen-2(3H)-one]",0.272,–
"C#Cc1c(F)ccc2cccc(-c3nc4c5c(nc(=O)n(C[C@@]6(C)CCCN6C)c5c3F)N3C[C@H]5CC[C@H](N5)[C@H]3[C@H](C)O4)c12 [Example 367, (8S,8aS,9S,12R)-3-(((R)-1,2-dimethylpyrrolidin-2-yl)methyl)-5-(8-ethynyl-7-fluoronaphthalen-1-yl)-4-fluoro-8-methyl-8a,9,10,11,12,13-hexahydro-8H-7-oxa-1,3,6,13a,14-pentaaza-9,12-methanonaphtho[1,8-ab]heptalen-2(3H)-one]",0.234,–
"CCc1c(F)ccc2cc(O)cc(-c3nc4c5c(nc(=O)n(C[C@H]6CCN6C)c5c3F)N3C[C@H]5CC[C@H](N5)[C@H]3[C@H](C)O4)c12 [Example 369, (8S,8aS,9S,12R)-5-(8-ethyl-7-fluoro-3-hydroxynaphthalen-1-yl)-4-fluoro-8-methyl-3-(((R)-1-methylazetidin-2-yl)methyl)-8a,9,10,11,12,13-hexahydro-8H-7-oxa-1,3,6,13a,14-pentaaza-9,12-methanonaphtho[1,8-ab]heptalen-2(3H)-one]",0.4,–
"C#Cc1c(F)ccc2cccc(-c3nc4c5c(nc(=O)n(C(C)[C@H]6CCCN6C)c5c3F)N3C[C@H]5CC[C@H](N5)[C@H]3[C@H](C)O4)c12 (stereo partly drawn) [Example 370, (8S,8aS,9S,12R)-5-(8-ethynyl-7-fluoronaphthalen-1-yl)-4-fluoro-8-methyl-3-(1-((R)-1-methylpyrrolidin-2-yl)ethyl)-8a,9,10,11,12,13-hexahydro-8H-7-oxa-1,3,6,13a,14-pentaaza-9,12-methanonaphtho[1,8-ab]heptalen-2(3H)-one]",0.271,–
"C#Cc1c(F)ccc2cc(O)cc(-c3ncc4c(N5CC6CCC(C5)N6)nc(OC[C@@]56CCCN5C[C@H](F)C6)nc4c3F)c12 [MRTX1133, reference compound]",–,Fa*Fg (%) ([1]; oral dose 30 mpk): 0.95%

# Source: patent US20260250301A1, “KRAS G12D INHIBITORS AND USES THEREOF” (SUZHOU ZANRONG PHARMA LIMITED, priority 2023, published 2026)
